Where two headings read alike, the source gives them in different places.
Assays:
ovine COX-1 = target: T1, ovine COX-1 (Ovis aries, UniProt P05979); assay: In vitro purified COX-1 inhibition assay (TLC, 14C-arachidonic acid); format: biochemical
T1 sequence (P05979 25-600): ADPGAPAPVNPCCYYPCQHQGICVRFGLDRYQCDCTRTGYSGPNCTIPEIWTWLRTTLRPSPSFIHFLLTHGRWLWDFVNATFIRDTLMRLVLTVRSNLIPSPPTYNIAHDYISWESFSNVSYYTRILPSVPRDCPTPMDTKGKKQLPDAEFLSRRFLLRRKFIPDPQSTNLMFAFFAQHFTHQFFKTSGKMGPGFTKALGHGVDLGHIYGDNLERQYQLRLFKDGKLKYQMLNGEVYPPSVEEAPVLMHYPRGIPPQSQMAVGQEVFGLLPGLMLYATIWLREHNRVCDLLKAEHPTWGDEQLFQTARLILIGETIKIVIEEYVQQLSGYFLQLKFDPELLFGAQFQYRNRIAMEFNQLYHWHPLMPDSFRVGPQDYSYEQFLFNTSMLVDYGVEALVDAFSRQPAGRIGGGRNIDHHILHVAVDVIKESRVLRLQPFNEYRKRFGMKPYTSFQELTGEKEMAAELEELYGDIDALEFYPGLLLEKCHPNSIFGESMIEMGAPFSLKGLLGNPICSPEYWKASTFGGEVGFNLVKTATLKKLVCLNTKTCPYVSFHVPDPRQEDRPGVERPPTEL
Experimental: The in vitro cyclooxygenase (ovine COX-1 or human COX-2) inhibitory activities of these probes were tested by a previously described TLC assay (FIGS. 19-21). Briefly, reaction mixtures of 200 μL consisted of hematin-reconstituted protein in 100 mM Tris-HCl, pH 8.0, 500 μM phenol, and [1-^14C]arachidonic acid (50 μM, about 55-57 mCi/mmol, Perkin Elmer).
Inhibition Assay Using Purified COX-1 and COX-2. Inhibition of purified ovine COX-1 or mouse COX-2 by test compounds was assayed by a previously described method, which quantifies the conversion of [1-^14C]arachidonic acid to [1-^14C]prostaglandin products. Reaction mixtures of 200 ∝L consisted of hematin-reconstituted protein in 100 mM Tris-HCl, pH 8.0, 500 μM phenol, and [1-^14C]arachidonic acid (50 μM, ˜55-57 mCi/mmol, Perkin Elmer). […] Reactions were terminated by solvent extraction in diethyl ether:methanol:1 M citrate buffer, pH 4.0 (30:4:1). The phases were separated by centrifugation at 2000 g for 2 min, and the organic phase was spotted on a thin-layer chromatography plate (EMD Kieselgel 60, VWR). The plate was developed in ethyl acetate:methylene chloride:glacial AcOH (75:25:1) at 4° C. Radiolabeled products were quantified with a radioactivity scanner (Bioscan, Inc., Washington, D.C.).

hCOX-2 in 1483 cells = target: T2, hCOX-2 in 1483 cells (Homo sapiens, UniProt P35354); assay: Intact cell COX-2 inhibition assay in 1483 HNSCC cells; format: cell-based
T2 construct: cells that express high levels of COX-2 were selected; endogenous in cells; host or cells: 1483 human head and neck squamous cell carcinoma (HNSCC) cells
T2 sequence (P35354 18-604): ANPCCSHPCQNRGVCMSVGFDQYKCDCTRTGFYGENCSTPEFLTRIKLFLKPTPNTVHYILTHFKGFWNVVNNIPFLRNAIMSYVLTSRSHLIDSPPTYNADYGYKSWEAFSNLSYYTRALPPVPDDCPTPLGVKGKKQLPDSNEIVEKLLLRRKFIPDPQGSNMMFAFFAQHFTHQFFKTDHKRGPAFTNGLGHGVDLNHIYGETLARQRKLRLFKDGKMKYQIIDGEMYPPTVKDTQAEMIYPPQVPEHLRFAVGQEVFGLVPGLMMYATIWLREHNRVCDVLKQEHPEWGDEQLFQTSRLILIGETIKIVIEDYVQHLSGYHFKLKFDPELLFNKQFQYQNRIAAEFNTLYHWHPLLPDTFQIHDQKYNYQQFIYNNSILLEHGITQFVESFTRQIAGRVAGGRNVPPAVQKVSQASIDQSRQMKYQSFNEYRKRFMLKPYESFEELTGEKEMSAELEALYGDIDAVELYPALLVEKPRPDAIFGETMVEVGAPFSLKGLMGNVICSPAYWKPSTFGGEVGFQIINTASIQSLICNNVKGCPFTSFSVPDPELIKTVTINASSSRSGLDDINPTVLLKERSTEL
Experimental: Following the promising results from the purified enzyme assay, the ability of compound 1 to inhibit COX-2 in intact cells was examined using a previously reported method. 1483 human head and neck squamous cell carcinoma (1483 HNSCC) cells that express high levels of COX-2 were selected. […]
Cell Culture and In Vitro Intact Cell Metabolism Assay. Inhibition of COX-2 in intact cells by test compounds was assayed by a previously described method. Human 1483 head and neck squamous cell carcinoma (HNSCC) cells (passage 8-18, mycoplasma negative by a polymerase chain reaction detection method) were cultured in DMEM/F12+10% fetal bovine serum+Antibiotic/Antimycotic in 6-well plates to 60% confluence. […] Reactions were terminated and analyzed by thin layer chromatography as described above.

Row | SMILES | IC50 (ovine COX-1; high throughput screening of fluorocoxib and chemocoxib libraries, read-out: purified COX-1 IC50) [µM] | IC50 (ovine COX-1; purified ovine COX-1 (22.5 nM), inhibitor 20 min, then 1-14C-AA (50 μM) 37° C. 30 s, duplicates, read-out: oCOX-1 IC50) [µM] | IC50 (hCOX-2 in 1483 cells; high throughput screening, intact cancer cells, read-out: COX-2 positive 1483 HNSCC cells IC50) [µM] | IC50 (ovine COX-1) [µM] | IC50 (hCOX-2 in 1483 cells; COX-2 IC50 in intact cells, 1483 HNSCC cells, compound 30 min 37° C., then [1-14C]-arachidonic acid 10 μM 20 min) [µM] | IC50 (hCOX-2 in 1483 cells; hCOX-2 IC50, 1483 cells, 8 μM 14C-AA, 30 min at 37° C.) [µM]
1 | COc1ccc2c(c1)c(CC(=O)NCCCCNC(=O)c1ccc(C3=c4cc5c6c(c4Oc4c3cc3c7c4CCCN7CCC3)CCC[N+]=6CCC5)c(C(=O)[O-])c1)c(C)n2C(=O)c1ccc(Cl)cc1 [Fluorocoxib A, reference compound] | > 25 | > 25 | 0.3 | – | – | –
2 | COc1ccc2c(c1)c(CC(=O)NCCCCNC(=O)c1ccc(C3=c4cc5c6c(c4Oc4c3cc3c7c4CCCN7CCC3)CCC[N+]=6CCC5)c(C(=O)NC3CC(C)(C)N([O])C(C)(C)C3)c1)c(C)n2C(=O)c1ccc(Cl)cc1 [Compound 1] | – | – | – | > 25 | 0.28 | 0.285

Source: patent US10792377B2, “Compounds and method for imaging cancer” (Vanderbilt University, priority 2017, dated 2020)
